Experimental data from PubChem BioAssay (NCI).
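Abbreviation: GI50, concentration required for 50% inhibition of growth. At the TGI there is no net growth.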

Experiments:
Test in all cases: NCI anticancer screen, dose series, 384-well format
UACC-257 melanoma = tested on: UACC-257 melanoma
TK-10 renal = tested on: TK-10 renal
A549 NSCLC = tested on: A549 NSCLC
PC-3 prostate = tested on: PC-3 prostate
SF-295 CNS = tested on: SF-295 CNS
SF-539 CNS = tested on: SF-539 CNS
MOLT-4 leukemia = tested on: MOLT-4 leukemia
DU-145 prostate = tested on: DU-145 prostate
NCI-H226 lung = tested on: NCI-H226 lung
MDA-MB-435 melanoma = tested on: MDA-MB-435 melanoma
UO-31 renal = tested on: UO-31 renal
OVCAR-8 ovarian = tested on: OVCAR-8 ovarian
NCI/ADR-RES ovarian = tested on: NCI/ADR-RES ovarian
SF-268 CNS = tested on: SF-268 CNS
SW-620 colon = tested on: SW-620 colon
OVCAR-4 ovarian = tested on: OVCAR-4 ovarian
COLO 205 colon = tested on: COLO 205 colon
MCF7 breast = tested on: MCF7 breast
MALME-3M melanoma = tested on: MALME-3M melanoma
IGROV1 ovarian = tested on: IGROV1 ovarian
SR leukemia = tested on: SR leukemia
NCI-H322M lung = tested on: NCI-H322M lung
CCRF-CEM leukemia = tested on: CCRF-CEM leukemia
K-562 leukemia = tested on: K-562 leukemia
HCT-15 colon = tested on: HCT-15 colon
EKVX NSCLC = tested on: EKVX NSCLC
MDA-MB-468 breast = tested on: MDA-MB-468 breast
HCC-2998 colon = tested on: HCC-2998 colon
LOX IMVI melanoma = tested on: LOX IMVI melanoma
OVCAR-5 ovarian = tested on: OVCAR-5 ovarian
MDA-MB-231 breast = tested on: MDA-MB-231 breast
SN12C renal = tested on: SN12C renal
KM12 colon = tested on: KM12 colon
OVCAR-3 ovarian = tested on: OVCAR-3 ovarian
NCI-H460 NSCLC = tested on: NCI-H460 NSCLC
UACC-62 melanoma = tested on: UACC-62 melanoma
786-0 renal = tested on: 786-0 renal
SNB-75 CNS = tested on: SNB-75 CNS
NCI-H522 lung = tested on: NCI-H522 lung
M14 melanoma = tested on: M14 melanoma
BT-549 breast = tested on: BT-549 breast
SK-MEL-28 melanoma = tested on: SK-MEL-28 melanoma
CAKI-1 renal = tested on: CAKI-1 renal
HOP-62 NSCLC = tested on: HOP-62 NSCLC
NCI-H23 lung = tested on: NCI-H23 lung
SK-MEL-5 melanoma = tested on: SK-MEL-5 melanoma
HT29 colon = tested on: HT29 colon
SK-OV-3 ovarian = tested on: SK-OV-3 ovarian
RXF 393 renal = tested on: RXF 393 renal
A498 renal = tested on: A498 renal
T-47D breast = tested on: T-47D breast
SNB-19 CNS = tested on: SNB-19 CNS
HL-60(TB) leukemia = tested on: HL-60(TB) leukemia
ACHN renal = tested on: ACHN renal
RPMI-8226 leukemia = tested on: RPMI-8226 leukemia

Cc1nc2ccc(CN(C)c3ccc(C(=O)N[C@@H](CCC(=O)O)C(=O)O)s3)cc2c(=O)[nH]1
GI50 (UACC-257 melanoma): 6070 nM
TGI (UACC-257 melanoma): > 100000 nM
GI50 (TK-10 renal): < 10 nM
TGI (TK-10 renal): > 100000 nM
GI50 (A549 NSCLC): < 10 nM
TGI (A549 NSCLC): > 100000 nM
GI50 (PC-3 prostate): < 10 nM
TGI (PC-3 prostate): > 100000 nM
GI50 (SF-295 CNS): < 10 nM
TGI (SF-295 CNS): < 10 nM
GI50 (SF-539 CNS): < 10 nM
TGI (SF-539 CNS): > 100000 nM
GI50 (MOLT-4 leukemia): < 10 nM
TGI (MOLT-4 leukemia): < 10 nM
GI50 (DU-145 prostate): < 10 nM
TGI (DU-145 prostate): > 100000 nM
GI50 (NCI-H226 lung): 55500 nM
TGI (NCI-H226 lung): > 100000 nM
GI50 (MDA-MB-435 melanoma): < 10 nM
TGI (MDA-MB-435 melanoma): > 100000 nM
GI50 (UO-31 renal): < 10 nM
TGI (UO-31 renal): > 100000 nM
GI50 (OVCAR-8 ovarian): < 10 nM
TGI (OVCAR-8 ovarian): > 100000 nM
GI50 (NCI/ADR-RES ovarian): < 10 nM
TGI (NCI/ADR-RES ovarian): < 10 nM
GI50 (SF-268 CNS): < 10 nM
TGI (SF-268 CNS): < 10 nM
GI50 (SW-620 colon): < 10 nM
TGI (SW-620 colon): > 100000 nM
GI50 (OVCAR-4 ovarian): > 100000 nM
TGI (OVCAR-4 ovarian): > 100000 nM
GI50 (COLO 205 colon): < 10 nM
TGI (COLO 205 colon): > 100000 nM
GI50 (MCF7 breast): < 10 nM
TGI (MCF7 breast): > 100000 nM
GI50 (MALME-3M melanoma): 17.9 nM
TGI (MALME-3M melanoma): > 100000 nM
GI50 (IGROV1 ovarian): 46.2 nM
TGI (IGROV1 ovarian): > 100000 nM
GI50 (SR leukemia): < 10 nM
TGI (SR leukemia): < 10 nM
GI50 (NCI-H322M lung): > 100000 nM
TGI (NCI-H322M lung): > 100000 nM
GI50 (CCRF-CEM leukemia): < 10 nM
TGI (CCRF-CEM leukemia): < 10 nM
GI50 (K-562 leukemia): < 10 nM
TGI (K-562 leukemia): > 100000 nM
GI50 (HCT-15 colon): < 10 nM
TGI (HCT-15 colon): > 100000 nM
GI50 (EKVX NSCLC): > 100000 nM
TGI (EKVX NSCLC): > 100000 nM
GI50 (MDA-MB-468 breast): > 100000 nM
TGI (MDA-MB-468 breast): > 100000 nM
GI50 (HCC-2998 colon): < 10 nM
TGI (HCC-2998 colon): > 100000 nM
GI50 (LOX IMVI melanoma): < 10 nM
TGI (LOX IMVI melanoma): > 100000 nM
GI50 (OVCAR-5 ovarian): < 10 nM
TGI (OVCAR-5 ovarian): > 100000 nM
GI50 (MDA-MB-231 breast): 8370 nM
TGI (MDA-MB-231 breast): > 100000 nM
GI50 (SN12C renal): < 10 nM
TGI (SN12C renal): < 10 nM
GI50 (KM12 colon): > 100000 nM
TGI (KM12 colon): > 100000 nM
GI50 (OVCAR-3 ovarian): < 10 nM
TGI (OVCAR-3 ovarian): > 100000 nM
GI50 (NCI-H460 NSCLC): < 10 nM
TGI (NCI-H460 NSCLC): > 100000 nM
GI50 (UACC-62 melanoma): 23.3 nM
TGI (UACC-62 melanoma): > 100000 nM
GI50 ([…]-0 renal): < 10 nM
TGI (786-0 renal): > 100000 nM
GI50 (SNB-75 CNS): < 10 nM
TGI (SNB-75 CNS): > 100000 nM
GI50 (NCI-H522 lung): < 10 nM
TGI (NCI-H522 lung): < 10 nM
GI50 (M14 melanoma): < 10 nM
TGI (M14 melanoma): < 10 nM
GI50 (BT-549 breast): < 10 nM
TGI (BT-549 breast): > 100000 nM
GI50 (SK-MEL-28 melanoma): < 10 nM
TGI (SK-MEL-28 melanoma): > 100000 nM
GI50 (CAKI-1 renal): < 10 nM
TGI (CAKI-1 renal): > 100000 nM
GI50 (HOP-62 NSCLC): < 10 nM
TGI (HOP-62 NSCLC): 19.5 nM
GI50 (NCI-H23 lung): 490 nM
TGI (NCI-H23 lung): > 100000 nM
GI50 (SK-MEL-5 melanoma): > 100000 nM
TGI (SK-MEL-5 melanoma): > 100000 nM
GI50 (HT29 colon): < 10 nM
TGI (HT29 colon): > 100000 nM
GI50 (SK-OV-3 ovarian): < 10 nM
TGI (SK-OV-3 ovarian): > 100000 nM
GI50 (RXF 393 renal): 11.9 nM
TGI (RXF 393 renal): > 100000 nM
GI50 (A498 renal): < 10 nM
TGI (A498 renal): > 100000 nM
GI50 (T-47D breast): < 10 nM
TGI (T-47D breast): > 100000 nM
GI50 (SNB-19 CNS): < 10 nM
TGI (SNB-19 CNS): 98.7 nM
GI50 (HL-60(TB) leukemia): < 10 nM
TGI (HL-60(TB) leukemia): < 10 nM
GI50 (ACHN renal): < 10 nM
TGI (ACHN renal): > 100000 nM
GI50 (RPMI-8226 leukemia): < 10 nM
TGI (RPMI-8226 leukemia): < 10 nM
